Key:
Format in all cases: in vivo
[1] = test system: Alopecurus myosuroides (ALOMY); test: Post-emergence herbicidal glasshouse test on Alopecurus myosuroides; settings: for POST Application ALOMY herbicidal damage (five point scale): post-emergence, 1000 g/h, evaluated after 13 days
Description: (§1) Seeds of a variety of test species are sown in standard soil in pots (Alopecurus myosuroides (ALOMY), Setaria faberi (SETFA), Echinochloa crus-galli (ECHCG), Solanum nigrum (SOLNI), Amaranthus retoflexus (AMARE), Ipomoea hederacea (IPOHE)). After cultivation for one day (pre-emergence) or after 8 days cultivation (post-emergence) under controlled conditions in a glasshouse (at 24/16° C., day/night; 14 hours light; 65% humidity), the plants are sprayed with an aqueous spray solution derived from the formulation of the technical active ingredient in acetone/water (50:50) solution containing 0.5% Tween 20 (polyoxyethelyene sorbitan monolaurate, CAS RN 9005-64-5). Compounds are applied at 1000 g/h. The test plants are then grown in a glasshouse under controlled conditions in a glasshouse (at 24/16° C., day/night; 14 hours light; 65% humidity) and watered twice daily. After 13 days for pre and post-emergence, the test is evaluated for the percentage herbicidal damage caused to the plant. The biological activities are shown in the following table on a five point scale (5=80-100% damage; 4=60-79% damage; 3=40-59% damage; 2=20-39% damage; 1=0-19% damage).

[2] = test system: Amaranthus retoflexus (AMARE); test: Post-emergence herbicidal glasshouse test on Amaranthus retoflexus; settings: for POST Application AMARE herbicidal damage (five point scale): post-emergence, 1000 g/h, evaluated after 13 days
Description: as §1

Solanum nigrum (SOLNI) [3] = test: Pre-emergence herbicidal glasshouse test on Solanum nigrum; settings: for PRE Application SOLNI herbicidal damage (five point scale): pre-emergence, 1000 g/h, evaluated after 13 days
Description: as §1

[4] = test system: Alopecurus myosuroides (ALOMY); test: Pre-emergence herbicidal glasshouse test on Alopecurus myosuroides; settings: for PRE Application ALOMY herbicidal damage (five point scale): pre-emergence, 1000 g/h, evaluated after 13 days
Description: as §1

Setaria faberi (SETFA) [5] = test: Pre-emergence herbicidal glasshouse test on Setaria faberi; settings: for PRE Application SETFA herbicidal damage (five point scale): pre-emergence, 1000 g/h, evaluated after 13 days
Description: as §1

Setaria faberi (SETFA) [6] = test: Post-emergence herbicidal glasshouse test on Setaria faberi; settings: for POST Application SETFA herbicidal damage (five point scale): post-emergence, 1000 g/h, evaluated after 13 days
Description: as §1

[7] = test system: Amaranthus retoflexus (AMARE); test: Pre-emergence herbicidal glasshouse test on Amaranthus retoflexus; settings: for PRE Application AMARE herbicidal damage (five point scale): pre-emergence, 1000 g/h, evaluated after 13 days
Description: as §1

Solanum nigrum (SOLNI) [8] = test: Post-emergence herbicidal glasshouse test on Solanum nigrum; settings: for POST Application SOLNI herbicidal damage (five point scale): post-emergence, 1000 g/h, evaluated after 13 days
Description: as §1

[9] = test system: Ipomoea hederacea (IPOHE); test: Post-emergence herbicidal glasshouse test on Ipomoea hederacea; settings: for POST Application IPOHE herbicidal damage (five point scale): post-emergence, 1000 g/h, evaluated after 13 days
Description: as §1

[10] = test system: Echinochloa crus-galli (ECHCG); test: Post-emergence herbicidal glasshouse test on Echinochloa crus-galli; settings: for POST Application ECHCG herbicidal damage (five point scale): post-emergence, 1000 g/h, evaluated after 13 days
Description: as §1

[11] = test system: Echinochloa crus-galli (ECHCG); test: Pre-emergence herbicidal glasshouse test on Echinochloa crus-galli; settings: pre-emergence; 1000 g/h; evaluated after 13 days
Description: as §1

[12] = test system: Ipomoea hederacea (IPOHE); test: Pre-emergence herbicidal glasshouse test on Ipomoea hederacea; settings: pre-emergence; 1000 g/h; evaluated after 13 days
Description: as §1

Row | Structure (SMILES) | POST Application ALOMY herbicidal damage (five point scale) [1] | POST Application AMARE herbicidal damage (five point scale) [2] | PRE Application SOLNI herbicidal damage (five point scale) (Solanum nigrum (SOLNI) [3]) | PRE Application ALOMY herbicidal damage (five point scale) [4] | PRE Application SETFA herbicidal damage (five point scale) (Setaria faberi (SETFA) [5]) | POST Application SETFA herbicidal damage (five point scale) (Setaria faberi (SETFA) [6]) | PRE Application AMARE herbicidal damage (five point scale) [7] | POST Application SOLNI herbicidal damage (five point scale) (Solanum nigrum (SOLNI) [8]) | POST Application IPOHE herbicidal damage (five point scale) [9] | POST Application ECHCG herbicidal damage (five point scale) [10] | PRE Application ECHCG herbicidal damage (five point scale) [11] | PRE Application IPOHE herbicidal damage (five point scale) [12] | further results
1 | COCn1ncc(-c2ccc(S(C)(=O)=O)c(C3=NOCC3)c2C)c(O)c1=O [Compound 1.001] | 5 (5=80-100% damage) | 5 (5=80-100% damage) | 5 (5=80-100% damage) | 5 (5=80-100% damage) | 5 (5=80-100% damage) | 5 (5=80-100% damage) | 5 (5=80-100% damage) | 5 (5=80-100% damage) | 5 (5=80-100% damage) | 5 (5=80-100% damage) | 5 (5=80-100% damage) | 5 (5=80-100% damage) | –
2 | COc1ccc(Cn2ncc(-c3ccc(S(C)(=O)=O)c(C4=NOCC4)c3C)c(O)c2=O)cc1 [Compound 1.002] | 1 (1=0-19% damage) | 3 (3=40-59% damage) | 1 (1=0-19% damage) | 1 (1=0-19% damage) | 1 (1=0-19% damage) | 1 (1=0-19% damage) | 1 (1=0-19% damage) | 5 (5=80-100% damage) | 2 (2=20-39% damage) | 1 (1=0-19% damage) | 1 (1=0-19% damage) | 1 (1=0-19% damage) | –
3 | CCn1ncc(-c2ccc(S(C)(=O)=O)c(C3=NOCC3)c2Cl)c(O)c1=O [Compound 1.009] | 5 (5=80-100% damage) | 5 (5=80-100% damage) | 5 (5=80-100% damage) | 5 (5=80-100% damage) | 5 (5=80-100% damage) | 5 (5=80-100% damage) | 5 (5=80-100% damage) | 5 (5=80-100% damage) | 5 (5=80-100% damage) | 5 (5=80-100% damage) | 5 (5=80-100% damage) | – | –
4 | Cc1ccn(-c2cnn(C)c(=O)c2O)c(=O)c1 [Compound 1.065] | 1 (1=0-19% damage) | 5 (5=80-100% damage) | 1 (1=0-19% damage) | 1 (1=0-19% damage) | 2 (2=20-39% damage) | 5 (5=80-100% damage) | 5 (5=80-100% damage) | 4 (4=60-79% damage) | 4 (4=60-79% damage) | 5 (5=80-100% damage) | 3 (3=40-59% damage) | – | –
5 | COc1ccc(-c2cnn(C)c(=O)c2O)c(C(F)(F)F)c1 [Compound 1.115] | 1 (1=0-19% damage) | 2 (2=20-39% damage) | 4 (4=60-79% damage) | 1 (1=0-19% damage) | 1 (1=0-19% damage) | 1 (1=0-19% damage) | 4 (4=60-79% damage) | 5 (5=80-100% damage) | 4 (4=60-79% damage) | 1 (1=0-19% damage) | 2 (2=20-39% damage) | – | –
6 | C=Cc1ccc(-c2cnn(C)c(=O)c2O)c(S(C)(=O)=O)c1 [Compound 1.139] | 5 (5=80-100% damage) | 5 (5=80-100% damage) | – | 5 (5=80-100% damage) | 1 (1=0-19% damage) | 5 (5=80-100% damage) | 5 (5=80-100% damage) | 5 (5=80-100% damage) | 5 (5=80-100% damage) | 5 (5=80-100% damage) | 5 (5=80-100% damage) | 4 (4=60-79% damage) | –
7 | CCCCn1c(C2CC2)ncc(-c2cnn(C)c(=O)c2O)c1=O [Compound 10.005] | – | – | – | – | – | – | – | – | – | – | – | – | POST Application ALOMY ([1]; post-emergence application, Alopecurus myosuroides, damage score 1-5): 2 (2=20-39% damage); POST Application AMARE ([2]; post-emergence application, Amaranthus retoflexus, damage score 1-5): 5 (5=80-100% damage); PRE Application SOLNI (Solanum nigrum (SOLNI) [3]; pre-emergence application, Solanum nigrum, damage score 1-5): 5 (5=80-100% damage); PRE Application ALOMY ([4]; pre-emergence application, Alopecurus myosuroides, damage score 1-5): 1 (1=0-19% damage); PRE Application SETFA (Setaria faberi (SETFA) [5]; pre-emergence application, Setaria faberi, damage score 1-5): 1 (1=0-19% damage); POST Application SETFA (Setaria faberi (SETFA) [6]; post-emergence application, Setaria faberi, damage score 1-5): 5 (5=80-100% damage); PRE Application AMARE ([7]; pre-emergence application, Amaranthus retoflexus, damage score 1-5): 5 (5=80-100% damage); POST Application SOLNI (Solanum nigrum (SOLNI) [8]; post-emergence application, Solanum nigrum, damage score 1-5): 5 (5=80-100% damage); POST Application IPOHE ([9]; post-emergence application, Ipomoea hederacea, damage score 1-5): 4 (4=60-79% damage); POST Application ECHCG ([10]; post-emergence application, Echinochloa crus-galli, damage score 1-5): 5 (5=80-100% damage)

From US9693556B2, “Herbicidal pyridazinone derivatives” (SYNGENTA LIMITED, priority 2011, dated 2017)
